Assay results reported in PubChem BioAssay (NCI).
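Results reflect a 48-hour exposure of cells in 96-well plates to compound at five concentrations. TGI: total growth inhibition.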

Columns and labels:
Test in all cases: growth of human tumour cells (NCI), 48 h
U251 CNS = tested on: U251 CNS
HCT-15 colon = tested on: HCT-15 colon
MOLT-4 leukemia = tested on: MOLT-4 leukemia
OVCAR-4 ovarian = tested on: OVCAR-4 ovarian
HCC-2998 colon = tested on: HCC-2998 colon
SNB-19 CNS = tested on: SNB-19 CNS
BT-549 breast = tested on: BT-549 breast
RPMI-8226 leukemia = tested on: RPMI-8226 leukemia
SR leukemia = tested on: SR leukemia
SF-268 CNS = tested on: SF-268 CNS
NCI-H522 lung = tested on: NCI-H522 lung
UACC-62 melanoma = tested on: UACC-62 melanoma
PC-3 prostate = tested on: PC-3 prostate
UACC-257 melanoma = tested on: UACC-257 melanoma
SK-OV-3 ovarian = tested on: SK-OV-3 ovarian
SW-620 colon = tested on: SW-620 colon
SN12C renal = tested on: SN12C renal
DU-145 prostate = tested on: DU-145 prostate
OVCAR-5 ovarian = tested on: OVCAR-5 ovarian
M14 melanoma = tested on: M14 melanoma
SNB-75 CNS = tested on: SNB-75 CNS
HCT-116 colon = tested on: HCT-116 colon
RXF 393 renal = tested on: RXF 393 renal
MDA-MB-231 breast = tested on: MDA-MB-231 breast
T-47D breast = tested on: T-47D breast
MDA-MB-435 = tested on: MDA-MB-435
NCI-H226 lung = tested on: NCI-H226 lung
A549 NSCLC = tested on: A549 NSCLC
EKVX NSCLC = tested on: EKVX NSCLC
HOP-92 NSCLC = tested on: HOP-92 NSCLC
HOP-62 NSCLC = tested on: HOP-62 NSCLC
COLO 205 colon = tested on: COLO 205 colon
786-0 renal = tested on: 786-0 renal
NCI/ADR-RES ovarian = tested on: NCI/ADR-RES ovarian
IGROV1 ovarian = tested on: IGROV1 ovarian
LOX IMVI melanoma = tested on: LOX IMVI melanoma
SK-MEL-5 melanoma = tested on: SK-MEL-5 melanoma
SK-MEL-2 melanoma = tested on: SK-MEL-2 melanoma
TK-10 renal = tested on: TK-10 renal
KM12 colon = tested on: KM12 colon
HL-60(TB) leukemia = tested on: HL-60(TB) leukemia
UO-31 renal = tested on: UO-31 renal
SF-539 CNS = tested on: SF-539 CNS
MCF7 breast = tested on: MCF7 breast
NCI-H460 lung = tested on: NCI-H460 lung
A498 renal = tested on: A498 renal
HS 578T breast = tested on: HS 578T breast
ACHN renal = tested on: ACHN renal
CAKI-1 renal = tested on: CAKI-1 renal
K-562 leukemia = tested on: K-562 leukemia
NCI-H23 lung = tested on: NCI-H23 lung
SK-MEL-28 melanoma = tested on: SK-MEL-28 melanoma
OVCAR-8 ovarian = tested on: OVCAR-8 ovarian
HT29 colon = tested on: HT29 colon
SF-295 CNS = tested on: SF-295 CNS
OVCAR-3 ovarian = tested on: OVCAR-3 ovarian
CCRF-CEM leukemia = tested on: CCRF-CEM leukemia

Question: How did the TGI (U251 CNS) turn out when COc1ccc(C(C)c2cc3c(cc2O)OCO3)cc1 (configuration not stated) was run?
Answer: 28.6 µM

Question: What about the TGI (HCT-15 colon) of the same molecule?
Answer: 23.2 µM

Question: What about the TGI (MOLT-4 leukemia) of the same molecule?
Answer: 29.4 µM

Question: And the TGI (OVCAR-4 ovarian)?
Answer: > 100 µM

Question: And the TGI (HCC-2998 colon)?
Answer: 19.3 µM

Question: What about the TGI (SNB-19 CNS) of the same molecule?
Answer: 66.6 µM

Question: And the TGI (BT-549 breast)?
Answer: 32.5 µM

Question: What about the TGI (RPMI-8226 leukemia) of the same molecule?
Answer: 38.8 µM

Question: What about the TGI (SR leukemia) of the same molecule?
Answer: 13.6 µM

Question: And the TGI (SF-268 CNS)?
Answer: 32.5 µM

Question: And the TGI (NCI-H522 lung)?
Answer: 26 µM

Question: And the TGI (UACC-62 melanoma)?
Answer: 24.4 µM

Question: And the TGI (PC-3 prostate)?
Answer: 31.9 µM

Question: And the TGI (UACC-257 melanoma)?
Answer: 32.2 µM

Question: And the TGI (SK-OV-3 ovarian)?
Answer: 53.2 µM

Question: And the TGI (SW-620 colon)?
Answer: 28 µM

Question: And the TGI (SN12C renal)?
Answer: 33.3 µM

Question: What about the TGI (DU-145 prostate) of the same molecule?
Answer: 36.5 µM

Question: And the TGI (OVCAR-5 ovarian)?
Answer: 45.2 µM

Question: What about the TGI (M14 melanoma) of the same molecule?
Answer: 27.2 µM

Question: What about the TGI (SNB-75 CNS) of the same molecule?
Answer: 60.2 µM

Question: What about the TGI (HCT-116 colon) of the same molecule?
Answer: 29.6 µM

Question: And the TGI (RXF 393 renal)?
Answer: 30.1 µM

Question: And the TGI (MDA-MB-231 breast)?
Answer: 28.6 µM

Question: What about the TGI (T-47D breast) of the same molecule?
Answer: 79.1 µM

Question: And the TGI (MDA-MB-435)?
Answer: 18 µM

Question: And the TGI (NCI-H226 lung)?
Answer: 36.1 µM

Question: What about the TGI (A549 NSCLC) of the same molecule?
Answer: 32.2 µM

Question: And the TGI (EKVX NSCLC)?
Answer: 49.6 µM

Question: What about the TGI (HOP-92 NSCLC) of the same molecule?
Answer: 31 µM

Question: And the TGI (HOP-62 NSCLC)?
Answer: 33.7 µM

Question: What about the TGI (COLO 205 colon) of the same molecule?
Answer: 27.4 µM

Question: And the TGI (786-0 renal)?
Answer: 34.5 µM

Question: What about the TGI (NCI/ADR-RES ovarian) of the same molecule?
Answer: 32.7 µM

Question: And the TGI (IGROV1 ovarian)?
Answer: 36.5 µM

Question: What about the TGI (LOX IMVI melanoma) of the same molecule?
Answer: 26.5 µM

Question: What about the TGI (SK-MEL-5 melanoma) of the same molecule?
Answer: 28.1 µM

Question: And the TGI (SK-MEL-2 melanoma)?
Answer: 28.9 µM

Question: What about the TGI (TK-10 renal) of the same molecule?
Answer: 35.9 µM

Question: And the TGI (KM12 colon)?
Answer: 83.3 µM

Question: What about the TGI (HL-60(TB) leukemia) of the same molecule?
Answer: 32.3 µM

Question: And the TGI (UO-31 renal)?
Answer: 29.8 µM

Question: What about the TGI (SF-539 CNS) of the same molecule?
Answer: 37 µM

Question: What about the TGI (MCF7 breast) of the same molecule?
Answer: 30.8 µM

Question: What about the TGI (NCI-H460 lung) of the same molecule?
Answer: 28.8 µM

Question: What about the TGI (A498 renal) of the same molecule?
Answer: 28.5 µM

Question: And the TGI (HS 578T breast)?
Answer: 42.6 µM

Question: And the TGI (ACHN renal)?
Answer: 47.6 µM

Question: What about the TGI (CAKI-1 renal) of the same molecule?
Answer: 74.4 µM

Question: And the TGI (K-562 leukemia)?
Answer: 28.7 µM

Question: And the TGI (NCI-H23 lung)?
Answer: 31.1 µM

Question: What about the TGI (SK-MEL-28 melanoma) of the same molecule?
Answer: 33 µM

Question: What about the TGI (OVCAR-8 ovarian) of the same molecule?
Answer: 31.7 µM

Question: What about the TGI (HT29 colon) of the same molecule?
Answer: 28.9 µM

Question: What about the TGI (SF-295 CNS) of the same molecule?
Answer: 35.3 µM

Question: And the TGI (OVCAR-3 ovarian)?
Answer: 28.3 µM

Question: CCCCCCCCCCCCc1ccsc1-c1ccc(-c2ccc(-c3sc(-c4cc(CCCCCCCCCCCC)c(-c5ccc(-c6ccc(-c7sccc7CCCCCCCCCCCC)s6)s5)s4)cc3CCCCCCCCCCCC)s2)s1 was tested. Which TGI (U251 CNS) did it give?
Answer: > 100 µM

Question: What about the TGI (HCT-15 colon) of the same molecule?
Answer: > 100 µM

Question: What about the TGI (MOLT-4 leukemia) of the same molecule?
Answer: > 100 µM

Question: What about the TGI (OVCAR-4 ovarian) of the same molecule?
Answer: > 100 µM

Question: And the TGI (HCC-2998 colon)?
Answer: > 100 µM

Question: And the TGI (SNB-19 CNS)?
Answer: > 100 µM

Question: And the TGI (BT-549 breast)?
Answer: > 100 µM

Question: And the TGI (RPMI-8226 leukemia)?
Answer: > 100 µM

Question: What about the TGI (SR leukemia) of the same molecule?
Answer: 75.2 µM

Question: What about the TGI (SF-268 CNS) of the same molecule?
Answer: > 100 µM

Question: And the TGI (NCI-H522 lung)?
Answer: > 100 µM

Question: What about the TGI (UACC-62 melanoma) of the same molecule?
Answer: > 100 µM

Question: And the TGI (PC-3 prostate)?
Answer: > 100 µM

Question: And the TGI (UACC-257 melanoma)?
Answer: > 100 µM

Question: What about the TGI (SK-OV-3 ovarian) of the same molecule?
Answer: > 100 µM

Question: And the TGI (SW-620 colon)?
Answer: > 100 µM

Question: What about the TGI (SN12C renal) of the same molecule?
Answer: > 100 µM

Question: What about the TGI (DU-145 prostate) of the same molecule?
Answer: > 100 µM

Question: And the TGI (OVCAR-5 ovarian)?
Answer: > 100 µM

Question: And the TGI (M14 melanoma)?
Answer: > 100 µM

Question: And the TGI (SNB-75 CNS)?
Answer: > 100 µM

Question: What about the TGI (HCT-116 colon) of the same molecule?
Answer: > 100 µM

Question: What about the TGI (RXF 393 renal) of the same molecule?
Answer: > 100 µM

Question: What about the TGI (MDA-MB-231 breast) of the same molecule?
Answer: > 100 µM

Question: What about the TGI (T-47D breast) of the same molecule?
Answer: > 100 µM

Question: And the TGI (MDA-MB-435)?
Answer: > 100 µM

Question: And the TGI (NCI-H226 lung)?
Answer: > 100 µM

Question: And the TGI (A549 NSCLC)?
Answer: > 100 µM

Question: And the TGI (EKVX NSCLC)?
Answer: > 100 µM

Question: What about the TGI (HOP-92 NSCLC) of the same molecule?
Answer: > 100 µM

Question: What about the TGI (HOP-62 NSCLC) of the same molecule?
Answer: > 100 µM

Question: What about the TGI (COLO 205 colon) of the same molecule?
Answer: > 100 µM

Question: And the TGI (786-0 renal)?
Answer: > 100 µM

Question: What about the TGI (NCI/ADR-RES ovarian) of the same molecule?
Answer: > 100 µM

Question: What about the TGI (IGROV1 ovarian) of the same molecule?
Answer: > 100 µM

Question: And the TGI (SK-MEL-5 melanoma)?
Answer: > 100 µM

Question: And the TGI (SK-MEL-2 melanoma)?
Answer: > 100 µM

Question: And the TGI (TK-10 renal)?
Answer: > 100 µM

Question: And the TGI (KM12 colon)?
Answer: > 100 µM

Question: What about the TGI (HL-60(TB) leukemia) of the same molecule?
Answer: > 100 µM

Question: What about the TGI (UO-31 renal) of the same molecule?
Answer: > 100 µM

Question: What about the TGI (SF-539 CNS) of the same molecule?
Answer: > 100 µM

Question: What about the TGI (MCF7 breast) of the same molecule?
Answer: > 100 µM

Question: And the TGI (NCI-H460 lung)?
Answer: > 100 µM

Question: And the TGI (A498 renal)?
Answer: > 100 µM

Question: And the TGI (HS 578T breast)?
Answer: > 100 µM

Question: And the TGI (ACHN renal)?
Answer: > 100 µM

Question: And the TGI (CAKI-1 renal)?
Answer: > 100 µM

Question: And the TGI (K-562 leukemia)?
Answer: > 100 µM

Question: And the TGI (CCRF-CEM leukemia)?
Answer: > 100 µM

Question: And the TGI (NCI-H23 lung)?
Answer: > 100 µM

Question: And the TGI (SK-MEL-28 melanoma)?
Answer: > 100 µM

Question: What about the TGI (OVCAR-8 ovarian) of the same molecule?
Answer: > 100 µM

Question: And the TGI (HT29 colon)?
Answer: > 100 µM

Question: What about the TGI (SF-295 CNS) of the same molecule?
Answer: > 100 µM

Question: What about the TGI (OVCAR-3 ovarian) of the same molecule?
Answer: > 100 µM
